We go through twelve substances from article PMC7048932, “Examining sterically demanding lysine analogs for histone lysine methyltransferase catalysis” (Scientific Reports, 2020).

One test deals with SETD7. Nature of the test: MALDI-TOF MS methylation assay of H3K4 peptides with SETD7. It is filed as biochemical, human. The conditions noted are these: peptide 100 µM, SETD7 2 µM, SAM 200 µM, 1 h, 37 °C. The protocol:
(§1) MALDI-MS methyltransferases activity experiments were performed using a Bruker instrument in the reflectron positive mode. For regular methyltransferase standard conditions experiment which carried out in 30 µL total volume, the mixture contains peptide (100 µM), SAM (200 µM), SETD8 or SETD7 (2 µM), in assay buffer 50 mM Tris at optimal pH 8.0. In case of G9a and GLP, similar conditions were used, except (500 µM) of SAM was added to the reaction mixture. Samples were incubated in an Eppendorf vial 1.5 mL using thermomixer for 1 h at 37 °C. A 5 µL aliquot of the solution was mixed with 5 µL of MeOH, after which 5 µL of this mixture was mixed with 5 µL of α-cyano-4-hydroxycinamic acid matrix (CHCA, 5 mg/mL in 125:125 µL acetonitrile/water). The spots were placed on a stainless steel MALDI plate (MS 96 target ground steel BC of Bruker, Germany). The mass corresponding to one monomethylation observed as +14 Da, dimethylation observed as +28 Da and trimethylation observed as +42 Da. The enzymatic activity was determined by taking the peak areas of each methylation state, including all isotopes and adducts, and was annotated using FlexAnalysis software (Bruker Daltonics, Germany). […] Methylated peptide substrates were repeated five times and the unmethylated substrates were triplicated. Sequences of the examined peptides are given in (Supplementary Table 1).

A further test deals with T1, SETD8 (Homo sapiens, UniProt Q9NQR1).
T1 construct: His6 (N); made in house; host or cells: E. coli BL21 (DE3)pLysS-rosetta
T1 sequence (Q9NQR1 1-393): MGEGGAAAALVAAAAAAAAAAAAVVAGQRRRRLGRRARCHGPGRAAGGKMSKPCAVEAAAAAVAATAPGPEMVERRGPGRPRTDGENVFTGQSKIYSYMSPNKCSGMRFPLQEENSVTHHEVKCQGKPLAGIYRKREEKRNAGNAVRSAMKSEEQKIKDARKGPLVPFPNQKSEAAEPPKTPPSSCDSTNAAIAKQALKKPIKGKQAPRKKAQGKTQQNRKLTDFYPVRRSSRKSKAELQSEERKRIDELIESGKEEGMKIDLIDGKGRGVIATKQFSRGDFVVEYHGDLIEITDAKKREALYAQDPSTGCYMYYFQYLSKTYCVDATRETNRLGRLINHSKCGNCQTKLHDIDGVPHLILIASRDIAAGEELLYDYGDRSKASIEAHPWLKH
The test can be described thus: MALDI-TOF MS methylation assay of H4K20 peptides with SETD8. It is filed as biochemical. The conditions noted are these: peptide 100 µM, SETD8 10 µM, SAM 1 mM, 1 h and 5 h, 37 °C, MALDI-MS. The protocol: as §1, with “For regular methyltransferase standard conditions experiment which carried out in 30 µL total volume, the mixture contains peptide (100 µM), SAM (200 µM), SETD8 or SETD7 (2 µM), in assay buffer 50 mM Tris at optimal pH 8.0.” left out

Test [1] has as its target T2, GLP (Homo sapiens, UniProt Q9H9B1).
T2 construct: His6 (N); made in house; host or cells: E. coli BL21 (DE3)pLysS-rosetta
T2 sequence (Q9H9B1 1-1298): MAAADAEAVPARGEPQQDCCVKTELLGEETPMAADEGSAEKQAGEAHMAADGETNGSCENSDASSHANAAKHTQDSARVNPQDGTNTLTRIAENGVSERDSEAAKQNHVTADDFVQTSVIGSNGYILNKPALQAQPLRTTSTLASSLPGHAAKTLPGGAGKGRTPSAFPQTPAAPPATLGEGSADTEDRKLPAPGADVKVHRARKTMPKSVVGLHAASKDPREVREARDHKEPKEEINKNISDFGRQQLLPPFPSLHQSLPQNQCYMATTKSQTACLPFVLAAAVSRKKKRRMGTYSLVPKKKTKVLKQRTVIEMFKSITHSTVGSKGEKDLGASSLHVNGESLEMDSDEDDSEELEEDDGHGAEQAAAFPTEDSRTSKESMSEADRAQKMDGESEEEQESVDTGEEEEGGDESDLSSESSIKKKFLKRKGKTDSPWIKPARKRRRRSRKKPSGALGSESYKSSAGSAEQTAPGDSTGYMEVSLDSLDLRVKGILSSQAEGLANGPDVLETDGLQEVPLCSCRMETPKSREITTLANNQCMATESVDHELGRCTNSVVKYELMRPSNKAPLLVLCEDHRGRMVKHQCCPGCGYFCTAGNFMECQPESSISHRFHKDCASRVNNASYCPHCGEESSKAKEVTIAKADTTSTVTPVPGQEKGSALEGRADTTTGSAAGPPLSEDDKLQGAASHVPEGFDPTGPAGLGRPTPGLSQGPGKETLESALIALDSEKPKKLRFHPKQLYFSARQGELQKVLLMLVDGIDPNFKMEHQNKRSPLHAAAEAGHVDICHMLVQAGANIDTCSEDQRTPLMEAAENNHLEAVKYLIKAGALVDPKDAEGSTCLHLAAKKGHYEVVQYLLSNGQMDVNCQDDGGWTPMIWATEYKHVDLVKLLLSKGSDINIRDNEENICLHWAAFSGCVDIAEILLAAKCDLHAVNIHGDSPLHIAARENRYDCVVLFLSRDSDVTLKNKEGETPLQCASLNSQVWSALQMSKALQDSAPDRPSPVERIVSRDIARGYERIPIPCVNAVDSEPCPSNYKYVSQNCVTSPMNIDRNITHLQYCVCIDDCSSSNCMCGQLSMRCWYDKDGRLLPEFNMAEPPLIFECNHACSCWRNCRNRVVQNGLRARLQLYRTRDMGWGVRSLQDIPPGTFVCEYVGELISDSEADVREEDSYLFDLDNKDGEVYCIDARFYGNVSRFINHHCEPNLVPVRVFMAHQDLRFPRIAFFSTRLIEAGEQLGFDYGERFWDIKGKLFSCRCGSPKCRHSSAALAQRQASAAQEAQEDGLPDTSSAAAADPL
Nature of the test: MALDI-TOF MS methylation assay of H3K9 peptides with GLP. The following applies: peptide 100 µM, GLP 10 µM, SAM 1 mM, 5 h, 37 °C, MALDI-MS. It is filed as biochemical. As to the method:
as §1, with “Samples were incubated in an Eppendorf vial 1.5 mL using thermomixer for 1 h at 37 °C.” left out

In a further test the target is T3, G9a (Homo sapiens, UniProt Q96KQ7).
T3 construct: His6 (N); made in house; host or cells: E. coli BL21 (DE3)pLysS-rosetta
T3 sequence (Q96KQ7 1-1210): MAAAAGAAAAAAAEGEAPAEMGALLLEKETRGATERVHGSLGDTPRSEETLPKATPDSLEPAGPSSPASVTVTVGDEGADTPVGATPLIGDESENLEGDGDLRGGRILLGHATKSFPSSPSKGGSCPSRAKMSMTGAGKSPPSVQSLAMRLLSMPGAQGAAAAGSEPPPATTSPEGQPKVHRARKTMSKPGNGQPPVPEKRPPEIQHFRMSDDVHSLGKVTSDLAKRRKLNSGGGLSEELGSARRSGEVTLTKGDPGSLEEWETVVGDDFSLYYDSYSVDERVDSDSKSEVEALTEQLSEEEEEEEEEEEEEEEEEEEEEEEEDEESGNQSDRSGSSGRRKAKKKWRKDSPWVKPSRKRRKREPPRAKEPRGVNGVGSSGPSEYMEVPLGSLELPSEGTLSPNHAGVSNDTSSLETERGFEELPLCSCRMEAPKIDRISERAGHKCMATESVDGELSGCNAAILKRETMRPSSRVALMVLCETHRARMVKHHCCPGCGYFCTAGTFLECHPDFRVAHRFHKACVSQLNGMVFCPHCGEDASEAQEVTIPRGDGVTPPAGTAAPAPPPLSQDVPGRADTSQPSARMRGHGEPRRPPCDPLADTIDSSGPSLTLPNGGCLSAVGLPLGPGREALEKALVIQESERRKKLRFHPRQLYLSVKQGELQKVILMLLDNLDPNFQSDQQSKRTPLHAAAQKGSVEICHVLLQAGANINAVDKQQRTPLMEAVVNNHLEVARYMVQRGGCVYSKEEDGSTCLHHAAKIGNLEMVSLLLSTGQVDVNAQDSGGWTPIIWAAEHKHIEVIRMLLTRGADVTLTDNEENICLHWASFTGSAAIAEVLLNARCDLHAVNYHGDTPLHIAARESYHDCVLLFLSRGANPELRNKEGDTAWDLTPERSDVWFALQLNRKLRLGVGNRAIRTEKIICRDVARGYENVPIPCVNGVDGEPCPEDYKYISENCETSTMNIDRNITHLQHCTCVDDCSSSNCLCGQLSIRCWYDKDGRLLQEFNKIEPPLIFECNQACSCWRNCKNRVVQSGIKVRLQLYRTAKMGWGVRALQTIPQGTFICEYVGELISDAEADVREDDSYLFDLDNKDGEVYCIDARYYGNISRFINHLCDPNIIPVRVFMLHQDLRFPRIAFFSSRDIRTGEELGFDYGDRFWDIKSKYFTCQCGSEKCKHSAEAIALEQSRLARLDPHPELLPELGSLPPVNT
Nature of the test: MALDI-TOF MS methylation assay of H3K9 peptides with G9a. Format: biochemical. The conditions noted are these: peptide 100 µM, G9a 2 µM, SAM 500 µM, 1 h, 37 °C. The protocol:
as §1

Test [2] concerns the target T2, GLP. The test can be described thus: NMR assay of GLP-catalyzed methylation of H3K9 peptides. It is filed as biochemical. The conditions noted are these: peptide 400 µM, GLP 8 µM, SAM 2 mM, 50 mM Tris-d11.HCl pD 8.0, 1 h, 37 °C.

Entries after “also recorded” stand apart in the source; their conditions may differ.

As to “ARTK^4QTARKSTGGKA [H3K4, reference compound]”, the “SETD7-catalyzed methylation, result in words” value (“SETD7-catalyzed methylation” for short) in the test on SETD7 is recorded as “formation of monomethylated H3K4; also recorded: monomethylation”. Take “GGAKRHR(Y20)VLRDNIQ [H4Y20, H4K20 peptide bearing tyrosine at position 20]”: the “SETD8-catalyzed methylation, result in words, increased SETD8/SAM and prolonged incubation” value at SETD8 is reported as “lack of methylation”. As to “GGAKRHR(F4a20)VLRDNIQ [H4F4a20, H4K20 peptide bearing para-aminophenylalanine at position 20]”, the “SETD8-catalyzed methylation, result in words, increased SETD8/SAM and prolonged incubation” value on SETD8 is reported as “lack of methylation”. As to “ART(Ap4)QTARKSTGGKA [H3AP4, H3K4 peptide bearing pyridylalanine at position 4]”, in the test on SETD7, the “SETD7-catalyzed methylation” value is “lack of methylation”.

Take ARTKQTAR(Ap9)STGGKA [H3AP9]: on GLP [1], the “GLP-catalyzed methylation, result in words, increased GLP/SAM” value is “lack of methylation”. Besides, the “G9a-catalyzed methylation, result in words” value (from here on “G9a-catalyzed methylation”) on G9a is recorded as “lack of methylation”. Moreover, at GLP [2], the “GLP-catalyzed methylation by 1H NMR / 1H-13C HSQC, result in words” value was “not methylated”. In the case of “GGAKRHR(F3a20)VLRDNIQ [H4F3a20, H4K20 peptide bearing meta-aminophenylalanine at position 20]”, at SETD8, the “SETD8-catalyzed methylation, result in words, increased SETD8/SAM and prolonged incubation” value is “lack of methylation”. On to “ARTKQTARKSTGGK [H3 1-14K9, reference compound]”, for which, at G9a, the “G9a-catalyzed methylation” value is on record as “trimethylation”. Consider “GGAKRHR(Ap20)VLRDNIQ [H4AP20, H4K20 peptide bearing pyridylalanine at position 20]”, for which the “SETD8-catalyzed methylation, result in words, increased SETD8/SAM and prolonged incubation” value on SETD8 is recorded as “lack of methylation”. Turning to “ARTKQTAR(Y9)STGGKA (ARTKQTARYSTGGKA) [H3Y9]”, the “GLP-catalyzed methylation, result in words, increased GLP/SAM” value with GLP [1] is given as “lack of methylation”. For the same substance, in the test with G9a, the “G9a-catalyzed methylation” value is recorded as “lack of methylation”. For the same substance, the “GLP-catalyzed methylation by 1H NMR / 1H-13C HSQC, result in words” value in the test with GLP [2] is given as “not methylated”.

“ART(Y4)QTARKSTGGKA [H3Y4, H3K4 peptide bearing tyrosine at position 4]”: the “SETD7-catalyzed methylation” value in the test with SETD7 is recorded as “lack of methylation”.

In the case of “ART(Kba4)QTARKSTGGKA [H3Kba4, H3K4 peptide bearing benzylamine lysine analog at position 4]”, the “SETD7-catalyzed methylation” value in the test on SETD7 is “lack of methylation”. As for “ART(F3a4)QTARKSTGGKA [H3F3a4, H3K4 peptide bearing meta-aminophenylalanine at position 4]”, the “SETD7-catalyzed methylation” value in the test on SETD7 was “lack of methylation”.
